Data taken from ChEMBL document CHEMBL3351874, “Rational design of inhibitors of the bacterial cell wall synthetic enzyme GlmU using virtual screening and lead-hopping” (Bioorg Med Chem, 2014).
pIC50: −log10 of the molar value. The source made the active and inactive calls. No cut-off for these calls is given here.

Key:
[1] = test system: Streptococcus pyogenes; experiment: Antibacterial activity against Streptococcus pyogenes after 18 to 24 hrs by agar dilution method; format: functional, organism-based
[2] = test system: Streptococcus pneumoniae; experiment: Antibacterial activity against Streptococcus pneumoniae after 18 to 24 hrs by agar dilution method; format: functional, organism-based
[3] = biological target: Cyclin-dependent kinase 9 (Homo sapiens, UniProt P50750); experiment: Inhibition of human CDK9 incubated for 20 mins prior to MgCl2 addition measured after 90 mins by mobility shift assay
Cyclin-dependent kinase 9, sequence (P50750 whole entry): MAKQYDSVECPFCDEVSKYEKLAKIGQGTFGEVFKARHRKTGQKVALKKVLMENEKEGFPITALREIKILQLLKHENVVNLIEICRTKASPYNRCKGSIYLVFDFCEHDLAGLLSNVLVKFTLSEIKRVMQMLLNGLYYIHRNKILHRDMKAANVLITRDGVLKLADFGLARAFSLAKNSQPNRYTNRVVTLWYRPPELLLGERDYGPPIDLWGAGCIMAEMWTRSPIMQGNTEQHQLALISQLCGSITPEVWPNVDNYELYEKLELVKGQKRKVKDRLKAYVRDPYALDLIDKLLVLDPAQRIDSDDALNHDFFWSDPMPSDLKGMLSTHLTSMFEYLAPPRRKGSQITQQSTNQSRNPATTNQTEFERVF

[4] = biological target: T1, Tyrosine-protein kinase JAK3 (Homo sapiens, UniProt P52333); experiment: Inhibition of human JAK3 incubated for 20 mins prior to MgCl2 addition measured after 90 mins by mobility shift assay
T1 sequence (P52333 whole entry): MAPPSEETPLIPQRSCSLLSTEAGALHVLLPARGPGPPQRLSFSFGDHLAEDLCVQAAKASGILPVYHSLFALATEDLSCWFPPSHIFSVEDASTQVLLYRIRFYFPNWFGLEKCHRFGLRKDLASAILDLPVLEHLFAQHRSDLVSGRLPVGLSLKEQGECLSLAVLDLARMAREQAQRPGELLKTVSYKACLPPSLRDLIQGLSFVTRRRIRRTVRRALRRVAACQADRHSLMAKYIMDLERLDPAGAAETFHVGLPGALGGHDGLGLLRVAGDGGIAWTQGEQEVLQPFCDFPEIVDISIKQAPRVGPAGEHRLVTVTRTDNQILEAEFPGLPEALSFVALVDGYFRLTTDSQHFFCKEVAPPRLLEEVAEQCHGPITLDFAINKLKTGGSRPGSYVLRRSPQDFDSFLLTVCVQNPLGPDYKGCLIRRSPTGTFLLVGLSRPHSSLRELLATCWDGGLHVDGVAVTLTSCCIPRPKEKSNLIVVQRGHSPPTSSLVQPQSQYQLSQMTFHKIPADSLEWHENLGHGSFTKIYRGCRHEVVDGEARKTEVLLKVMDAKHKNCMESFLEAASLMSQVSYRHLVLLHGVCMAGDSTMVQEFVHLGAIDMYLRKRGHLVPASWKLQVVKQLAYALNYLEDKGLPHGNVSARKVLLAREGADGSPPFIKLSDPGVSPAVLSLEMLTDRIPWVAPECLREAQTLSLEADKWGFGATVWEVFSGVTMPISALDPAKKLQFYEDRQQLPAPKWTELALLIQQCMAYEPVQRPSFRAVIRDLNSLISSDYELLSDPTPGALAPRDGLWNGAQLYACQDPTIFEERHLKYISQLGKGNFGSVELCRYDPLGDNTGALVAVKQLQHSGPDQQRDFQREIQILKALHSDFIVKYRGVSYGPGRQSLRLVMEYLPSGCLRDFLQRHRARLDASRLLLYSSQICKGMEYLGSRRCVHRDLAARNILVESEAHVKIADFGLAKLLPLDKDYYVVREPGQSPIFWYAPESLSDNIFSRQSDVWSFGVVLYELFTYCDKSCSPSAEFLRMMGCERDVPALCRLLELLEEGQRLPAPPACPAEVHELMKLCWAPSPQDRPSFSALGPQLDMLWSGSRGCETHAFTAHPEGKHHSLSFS

[5] = biological target: Bifunctional protein GlmU (Escherichia coli, UniProt C3SLB7); experiment: Inhibition of Escherichia coli ATCC 27325 GlmU expressed in Escherichia coli HMS174(DE3) incubated for 15 mins prior to MgCl2 addition measured after 30 mins by malachite green staining-based assay
Bifunctional protein GlmU, sequence (C3SLB7 whole entry): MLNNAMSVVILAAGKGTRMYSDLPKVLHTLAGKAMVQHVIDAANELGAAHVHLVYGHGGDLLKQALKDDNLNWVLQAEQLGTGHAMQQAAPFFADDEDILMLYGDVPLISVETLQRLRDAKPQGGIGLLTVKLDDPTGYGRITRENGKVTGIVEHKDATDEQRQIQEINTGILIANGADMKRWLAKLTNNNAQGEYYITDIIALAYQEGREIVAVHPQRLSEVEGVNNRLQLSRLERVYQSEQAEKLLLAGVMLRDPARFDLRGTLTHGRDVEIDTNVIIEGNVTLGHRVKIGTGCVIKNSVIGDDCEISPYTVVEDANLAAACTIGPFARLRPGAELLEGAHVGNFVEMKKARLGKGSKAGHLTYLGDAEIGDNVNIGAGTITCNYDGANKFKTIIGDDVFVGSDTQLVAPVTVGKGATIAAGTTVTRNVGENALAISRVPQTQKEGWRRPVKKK

[6] = biological target: Interleukin-1 receptor-associated kinase 1 (Homo sapiens, UniProt P51617); experiment: Inhibition of human IRAK1 incubated for 20 mins prior to MgCl2 addition measured after 90 mins by mobility shift assay
Interleukin-1 receptor-associated kinase 1, sequence (P51617 whole entry): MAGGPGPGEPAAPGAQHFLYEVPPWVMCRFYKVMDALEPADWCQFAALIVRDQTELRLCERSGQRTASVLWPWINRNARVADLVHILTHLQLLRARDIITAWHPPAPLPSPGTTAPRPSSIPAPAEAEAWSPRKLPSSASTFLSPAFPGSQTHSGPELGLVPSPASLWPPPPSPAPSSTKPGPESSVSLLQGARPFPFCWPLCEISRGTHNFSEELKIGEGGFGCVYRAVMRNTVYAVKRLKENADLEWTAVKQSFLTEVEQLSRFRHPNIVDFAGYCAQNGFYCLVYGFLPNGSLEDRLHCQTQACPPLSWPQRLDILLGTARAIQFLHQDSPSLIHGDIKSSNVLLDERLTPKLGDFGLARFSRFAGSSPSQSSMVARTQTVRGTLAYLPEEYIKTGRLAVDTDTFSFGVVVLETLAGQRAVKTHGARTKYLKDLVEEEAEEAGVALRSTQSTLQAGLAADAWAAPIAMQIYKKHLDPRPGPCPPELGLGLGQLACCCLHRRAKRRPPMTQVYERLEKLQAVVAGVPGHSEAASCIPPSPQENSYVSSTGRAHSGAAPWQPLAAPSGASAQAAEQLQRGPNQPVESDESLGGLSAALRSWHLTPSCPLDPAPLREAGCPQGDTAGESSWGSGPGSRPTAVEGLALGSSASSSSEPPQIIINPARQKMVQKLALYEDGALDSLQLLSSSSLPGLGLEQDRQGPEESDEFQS

[7] = test system: Haemophilus influenzae; experiment: Antibacterial activity against Haemophilus influenzae after 18 to 24 hrs by agar dilution method; format: functional, organism-based
[8] = biological target: Tyrosine-protein kinase JAK2 (Homo sapiens, UniProt O60674); experiment: Inhibition of human JAK2 incubated for 20 mins prior to MgCl2 addition measured after 90 mins by mobility shift assay
Tyrosine-protein kinase JAK2, sequence (O60674 whole entry): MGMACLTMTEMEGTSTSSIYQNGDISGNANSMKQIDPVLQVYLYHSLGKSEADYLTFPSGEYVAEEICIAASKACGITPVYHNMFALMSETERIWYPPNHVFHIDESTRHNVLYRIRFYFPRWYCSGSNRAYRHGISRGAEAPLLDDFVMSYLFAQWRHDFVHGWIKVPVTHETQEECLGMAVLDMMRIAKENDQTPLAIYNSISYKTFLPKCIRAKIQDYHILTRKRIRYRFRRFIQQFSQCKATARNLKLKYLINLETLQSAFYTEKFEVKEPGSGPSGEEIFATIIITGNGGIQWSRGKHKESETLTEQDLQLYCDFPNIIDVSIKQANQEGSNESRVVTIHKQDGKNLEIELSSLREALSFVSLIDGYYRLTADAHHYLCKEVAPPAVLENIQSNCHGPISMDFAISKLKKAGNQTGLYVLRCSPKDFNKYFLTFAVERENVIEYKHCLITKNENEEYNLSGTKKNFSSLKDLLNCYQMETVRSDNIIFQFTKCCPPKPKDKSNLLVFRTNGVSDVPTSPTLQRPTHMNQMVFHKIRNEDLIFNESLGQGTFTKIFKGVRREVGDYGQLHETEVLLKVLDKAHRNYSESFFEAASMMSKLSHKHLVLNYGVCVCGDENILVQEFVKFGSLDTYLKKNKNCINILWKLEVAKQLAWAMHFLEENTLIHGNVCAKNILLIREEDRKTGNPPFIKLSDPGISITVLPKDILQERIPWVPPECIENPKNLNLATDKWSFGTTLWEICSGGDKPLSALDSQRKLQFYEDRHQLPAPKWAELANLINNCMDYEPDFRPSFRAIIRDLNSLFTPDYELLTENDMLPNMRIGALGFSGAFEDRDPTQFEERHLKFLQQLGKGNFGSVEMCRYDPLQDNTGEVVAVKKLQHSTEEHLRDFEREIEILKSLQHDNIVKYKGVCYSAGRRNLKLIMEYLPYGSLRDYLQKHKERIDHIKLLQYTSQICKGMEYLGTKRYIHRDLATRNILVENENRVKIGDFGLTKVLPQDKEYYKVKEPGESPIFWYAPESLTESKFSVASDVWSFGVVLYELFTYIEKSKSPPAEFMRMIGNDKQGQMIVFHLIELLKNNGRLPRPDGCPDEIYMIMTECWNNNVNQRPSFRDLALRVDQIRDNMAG

[9] = biological target: Tyrosine-protein kinase JAK1 (Homo sapiens, UniProt P23458); experiment: Inhibition of human JAK1 incubated for 20 mins prior to MgCl2 addition measured after 90 mins by mobility shift assay
Tyrosine-protein kinase JAK1, sequence (P23458 whole entry): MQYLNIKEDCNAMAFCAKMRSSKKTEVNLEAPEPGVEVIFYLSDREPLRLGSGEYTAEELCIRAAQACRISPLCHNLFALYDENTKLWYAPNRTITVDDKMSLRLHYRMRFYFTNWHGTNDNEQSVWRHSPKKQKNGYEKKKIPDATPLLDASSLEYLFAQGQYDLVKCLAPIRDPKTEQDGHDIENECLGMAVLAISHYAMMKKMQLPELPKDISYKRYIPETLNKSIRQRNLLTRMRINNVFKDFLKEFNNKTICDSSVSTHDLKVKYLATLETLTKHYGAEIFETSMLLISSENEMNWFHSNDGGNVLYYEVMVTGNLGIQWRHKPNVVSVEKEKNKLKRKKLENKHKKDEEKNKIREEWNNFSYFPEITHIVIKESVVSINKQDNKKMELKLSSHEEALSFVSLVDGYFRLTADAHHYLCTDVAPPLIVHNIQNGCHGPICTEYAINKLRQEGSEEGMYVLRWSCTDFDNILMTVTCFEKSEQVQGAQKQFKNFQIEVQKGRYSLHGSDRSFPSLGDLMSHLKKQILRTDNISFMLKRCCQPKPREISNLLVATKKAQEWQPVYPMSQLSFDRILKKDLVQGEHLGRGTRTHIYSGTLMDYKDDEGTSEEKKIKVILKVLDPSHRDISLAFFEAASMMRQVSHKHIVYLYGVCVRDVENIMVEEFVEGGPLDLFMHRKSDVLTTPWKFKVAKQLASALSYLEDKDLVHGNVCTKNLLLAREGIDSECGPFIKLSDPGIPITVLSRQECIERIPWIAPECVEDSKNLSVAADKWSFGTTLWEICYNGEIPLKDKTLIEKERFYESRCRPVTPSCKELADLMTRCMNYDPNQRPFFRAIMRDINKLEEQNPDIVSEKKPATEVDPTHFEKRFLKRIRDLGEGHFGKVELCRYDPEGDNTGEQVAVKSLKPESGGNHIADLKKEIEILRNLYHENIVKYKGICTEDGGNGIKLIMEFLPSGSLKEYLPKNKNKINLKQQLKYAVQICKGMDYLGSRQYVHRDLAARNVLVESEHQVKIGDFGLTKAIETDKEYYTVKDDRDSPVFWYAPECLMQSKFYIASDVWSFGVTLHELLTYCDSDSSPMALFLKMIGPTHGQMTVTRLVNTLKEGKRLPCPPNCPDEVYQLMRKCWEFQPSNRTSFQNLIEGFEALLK

[10] = Inhibition of Haemophilus influenzae ATCC 51907 GlmU expressed in Escherichia coli BL21(DE3) incubated for 15 mins prior to MgCl2 addition measured after 30 mins by malachite green staining-based assay
[11] = Serum protein binding in human at 10 uM after 30 mins by ultrafiltration method; format: ADME; conditions: read-out: PB (converted)
[12] = biological target: T2, Interleukin-1 receptor-associated kinase 4 (Homo sapiens, UniProt Q9NWZ3); experiment: Inhibition of human IRAK4 incubated for 20 mins prior to MgCl2 addition measured after 90 mins by mobility shift assay
T2 sequence (Q9NWZ3 whole entry): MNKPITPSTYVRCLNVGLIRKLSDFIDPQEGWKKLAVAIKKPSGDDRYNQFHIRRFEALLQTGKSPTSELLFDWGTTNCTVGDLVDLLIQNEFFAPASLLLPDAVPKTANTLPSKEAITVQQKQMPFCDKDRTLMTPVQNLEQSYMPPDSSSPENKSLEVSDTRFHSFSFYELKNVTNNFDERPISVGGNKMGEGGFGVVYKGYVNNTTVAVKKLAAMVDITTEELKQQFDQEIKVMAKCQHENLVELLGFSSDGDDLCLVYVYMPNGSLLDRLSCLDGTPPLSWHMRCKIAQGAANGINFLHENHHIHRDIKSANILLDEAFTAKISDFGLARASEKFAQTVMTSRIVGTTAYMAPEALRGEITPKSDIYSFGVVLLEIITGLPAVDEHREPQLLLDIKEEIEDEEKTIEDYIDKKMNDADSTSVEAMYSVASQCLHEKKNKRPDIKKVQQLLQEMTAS

[13] = biological target: Cyclin-dependent kinase 1 (Homo sapiens, UniProt P06493); experiment: Inhibition of human CDK1 incubated for 20 mins prior to MgCl2 addition measured after 90 mins by mobility shift assay
Cyclin-dependent kinase 1, sequence (P06493 whole entry): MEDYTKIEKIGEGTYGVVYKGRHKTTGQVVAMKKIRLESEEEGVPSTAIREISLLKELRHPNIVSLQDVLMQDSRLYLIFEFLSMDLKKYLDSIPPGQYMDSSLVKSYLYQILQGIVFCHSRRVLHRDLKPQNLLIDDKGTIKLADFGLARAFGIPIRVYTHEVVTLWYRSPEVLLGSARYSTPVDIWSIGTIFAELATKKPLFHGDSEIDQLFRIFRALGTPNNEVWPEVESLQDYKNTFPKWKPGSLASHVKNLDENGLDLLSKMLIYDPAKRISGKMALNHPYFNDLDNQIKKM

[14] = biological target: Cyclin-dependent kinase 2 (Homo sapiens, UniProt P24941); experiment: Inhibition of human CDK2 incubated for 20 mins prior to MgCl2 addition measured after 90 mins by mobility shift assay
[15] = biological target: Aurora kinase B (Homo sapiens, UniProt Q96GD4); experiment: Inhibition of human AURKB incubated for 20 mins prior to MgCl2 addition measured after 90 mins by mobility shift assay
Aurora kinase B, sequence (Q96GD4 whole entry): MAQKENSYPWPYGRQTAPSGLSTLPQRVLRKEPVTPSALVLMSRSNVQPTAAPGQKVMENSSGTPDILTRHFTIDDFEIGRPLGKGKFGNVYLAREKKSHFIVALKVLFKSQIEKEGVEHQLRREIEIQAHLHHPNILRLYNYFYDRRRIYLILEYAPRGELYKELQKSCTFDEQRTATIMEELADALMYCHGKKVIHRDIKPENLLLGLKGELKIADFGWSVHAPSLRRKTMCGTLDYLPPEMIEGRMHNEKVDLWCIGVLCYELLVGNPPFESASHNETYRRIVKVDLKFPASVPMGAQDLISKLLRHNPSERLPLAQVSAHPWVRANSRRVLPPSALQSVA

[16] = test system: Moraxella catarrhalis; experiment: Antibacterial activity against Moraxella catarrhalis after 18 to 24 hrs by agar dilution method; format: functional, organism-based

Compound | pIC50 [3] | pIC50 [4] | pIC50 [5] | pIC50 [6] | pIC50 [8] | pIC50 [9] | pIC50 [10] | fraction unbound at 0.5 h, 10 µM [11] | pIC50 [12] | pIC50 [13] | pIC50 [14] | pIC50 [15] | Activity [1] | Activity [2] | Activity [7] | Activity [16]
COc1cc2c(Nc3ccc(NC(=O)c4ccccc4)cc3)nc(NCCc3ccccn3)nc2cc1O | < 4.52 | < 4.52 | 6.19 | < 4.52 | < 4.52 | < 4.52 | 6.42 | < 0.01 | 6.24 | < 4.52 | < 4.52 | < 4.52 |  |  |  | 
COc1cc(C(=O)Nc2ccc(NC(=O)c3ccccc3)cc2)ccc1O | < 4.52 | < 4.52 | 4.74 | < 4.52 | < 4.52 | < 4.52 | 5.85 | < 0.01 | < 4.52 | < 4.52 | < 4.52 | < 4.52 |  |  |  | 
COc1cc2c(Nc3ccc(NC(=O)c4ccccc4)cc3)nc(C)nc2cc1O | < 4.52 | < 4.52 | 5.66 | < 4.52 | < 4.52 | < 4.52 | 6.41 | 0.097 | < 4.52 | < 4.52 | < 4.52 | < 4.52 |  |  |  | 

The next lines start with results.

pIC50 [3] | pIC50 [4] | pIC50 [5] | pIC50 [6] | pIC50 [8] | pIC50 [9] | pIC50 [10] | fraction unbound at 0.5 h, 10 µM [11] | pIC50 [12] | pIC50 [13] | pIC50 [14] | pIC50 [15] | Compound | Activity [1] | Activity [2] | Activity [7] | Activity [16]
< 4.52 | < 4.52 | 6.01 | < 4.52 | < 4.52 | < 4.52 | 7.11 | 0.159 | < 4.52 | < 4.52 | < 4.52 | 4.74 | CCNC(=O)Nc1ccc(NC(=O)c2cc(OC)cc(-c3c[nH]c(=O)[nH]c3=O)c2)cc1 | inactive | inactive | inactive | inactive
< 4.52 | < 4.52 | 6.92 | < 4.52 | < 4.52 | < 4.52 | 7.30 | 0.395 | < 4.52 | < 4.52 | < 4.52 | < 4.52 | COc1cc(C(=O)Nc2ccc(NC(=O)C3CCCCN3)cc2)cc(-c2c[nH]c(=O)[nH]c2=O)c1 (stereo not drawn) | inactive | inactive | inactive | inactive
